Where two headings read alike, the source gives them in different places.
Assays:
[1] = Cytotoxicity, cell viability assay in normal cells; format: cell-based, human; conditions: human, PBMC, fraction of 0 μM control, read-out: relative cell viability (Fig 6a), replicates; for viability at 0.000244141 μM: Con. 0.000244141 μM; for viability at 0.00390625 μM: Con. 0.00390625 μM; for viability at 0.015625 μM: Con. 0.015625 μM; for viability at 0.0625 μM: Con. 0.0625 μM; for viability at 1 μM: Con. 1 μM
From the text: (§1) Human peripheral blood mononuclear cells (PBMCs), normal T-cells and B-cells were provided by the University of Pennsylvania Human Immunology Core (HIC), and Patient-derived xenografts (PDXs) were obtained from Fox Chase Cancer Center (FCCC). These samples were from different unidentified and healthy donors with written, informed consent. All the procedures were approved by the Institutional Review Board (IRB) and conducted according to the declarations of Helsinki protocols.
(§2) 5000 cells as indicated were cultured in 96-well plate with 100 μl of media. […] After treatment, the cells were incubated with 100 μl buffer for 10 min at room temperature following the instructions of CellTiter-Glo kit (Promega, Madison, WI). Luminescence was detected using a multi-mode reader Cytation 5 (BioTek, Winooski, VT). […] Two independent experiments done in duplicates were performed.

Raji cells = assay: Cell viability assay (CellTiter-Glo luminescence); format: cell-based, human; conditions: Homo sapiens; for viability at 0.00244141 µM: read-out: relative cell viability (Fig 6f), replicates, Raji, Con. 0.00244141 μM, fraction of 0 μM control; for viability at 0.0390625 µM: read-out: relative cell viability (Fig 6f), replicates, Raji, Con. 0.0390625 μM, fraction of 0 μM control; for viability at 0.15625 µM: read-out: relative cell viability (Fig 6f), replicates, Raji, Con. 0.15625 μM, fraction of 0 μM control; for viability at 0.625 µM: read-out: relative cell viability (Fig 6f), replicates, Raji, Con. 0.625 μM, fraction of 0 μM control; for viability at 10 µM: read-out: relative cell viability (Fig 6f), replicates, Raji, Con. 10 μM, fraction of 0 μM control
Method: as §2

SU-DHL-4 cells = assay: Cell viability assay (CellTiter-Glo luminescence); format: cell-based, human; conditions: Homo sapiens, SU-DHL-4, 144 h; for viability at 0.00244141 µM: read-out: relative cell viability (Fig 6d), replicates, SU-DHL-4, Con. 0.00244141 μM, fraction of 0 μM control; for viability at 0.0390625 µM: read-out: relative cell viability (Fig 6d), replicates, SU-DHL-4, Con. 0.0390625 μM, fraction of 0 μM control; for viability at 0.15625 µM: read-out: relative cell viability (Fig 6d), replicates, SU-DHL-4, Con. 0.15625 μM, fraction of 0 μM control; for viability at 0.625 µM: read-out: relative cell viability (Fig 6d), replicates, SU-DHL-4, Con. 0.625 μM, fraction of 0 μM control; for viability at 10 µM: read-out: relative cell viability (Fig 6d), replicates, SU-DHL-4, Con. 10 μM, fraction of 0 μM control
Method: as §2

MOLM14 cells = assay: Cell viability assay (CellTiter-Glo luminescence); format: cell-based; conditions: Homo sapiens; for viability at 0.0390625 µM: MOLM-14, read-out: relative cell viability (Fig 6e), replicates, MOLM14, Con. 0.0390625 μM, fraction of 0 μM control; for viability at 0.15625 µM: MOLM-14, read-out: relative cell viability (Fig 6e), replicates, MOLM14, Con. 0.15625 μM, fraction of 0 μM control; for viability at 0.625 µM: MOLM-14, read-out: relative cell viability (Fig 6e), replicates, MOLM14, Con. 0.625 μM, fraction of 0 μM control; for viability at 10 µM: MOLM-14, read-out: relative cell viability (Fig 6e), replicates, MOLM14, Con. 10 μM, fraction of 0 μM control
Method: as §2

[2] = Cytotoxicity, cell viability assay in normal cells; format: cell-based; conditions: human, fraction of 0 μM control; for viability at 0.000244141 μM: Con. 0.000244141 μM; for viability at 0.00390625 μM: Con. 0.00390625 μM; for viability at 0.015625 μM: Con. 0.015625 μM; for viability at 0.0625 μM: Con. 0.0625 μM; for viability at 1 μM: Con. 1 μM
From the text: as §1, §2

[3] = normal B-cells from healthy donors, B-cells, read-out: relative cell viability (Fig 6c), replicates
[4] = normal T-cells from healthy donors, T-cells, read-out: relative cell viability (Fig 6b), replicates

Structure (SMILES) | viability at 0.000244141 μM [1] | viability at 0.00390625 μM [1] | viability at 0.015625 μM [1] | viability at 0.0625 μM [1] | viability at 1 μM [1] | viability at 0.00244141 µM (Raji cells) | viability at 0.0390625 µM (Raji cells) | viability at 0.15625 µM (Raji cells) | viability at 0.625 µM (Raji cells) | viability at 10 µM (Raji cells) | viability at 0.00244141 µM (SU-DHL-4 cells) | viability at 0.0390625 µM (SU-DHL-4 cells) | viability at 0.15625 µM (SU-DHL-4 cells) | viability at 0.625 µM (SU-DHL-4 cells) | viability at 10 µM (SU-DHL-4 cells) | viability at 0.0390625 µM (MOLM14 cells) | viability at 0.15625 µM (MOLM14 cells) | viability at 0.625 µM (MOLM14 cells) | viability at 10 µM (MOLM14 cells) | viability at 0.000244141 μM [2, 3] | other results
COc1c(OCCCN2CCOCC2)ccc2c1N=C(NC(=O)c1cnc(N)nc1)N1CCN=C21 [Copanlisib] | 104% | 106% | 92.8% | 73% | 61.4% | 94.7% | 91.7% | 102% | 67.9% | 7.75% | 122% | 69% | 42.6% | 12.3% | 5.12% | 59% | 58.4% | 18.1% | 4.25% | 90.1% | viability at 0.00244141 µM (MOLM14 cells; MOLM-14, read-out: relative cell viability (Fig 6e), replicates, MOLM14, Con. 0.00244141 μM, fraction of 0 μM control): 89.1%; viability at 0.00390625 μM [2, 3]: 95.7%; viability at 0.015625 μM [2, 3]: 91.4%; viability at 0.0625 μM [2, 3]: 79.9%; viability at 1 μM [2, 3]: 52.6%; viability at 0.000244141 μM [2, 4]: 95.3%; viability at 0.00390625 μM [2, 4]: 102%; viability at 0.015625 μM [2, 4]: 94.4%; viability at 0.0625 μM [2, 4]: 107%; viability at 1 μM [2, 4]: 79.9%
C[C@H](Nc1ncnc2nc[nH]c12)c1cc2cccc(Cl)c2c(=O)n1-c1ccccc1 [Duvelisib] | 103% | 94.6% | 101% | 92.6% | 80.3% | 94.9% | 112% | 94.1% | 99.1% | 64.1% | 103% | 99.8% | 85.8% | 75.1% | 27.4% | 122% | 109% | 125% | 24.1% | 94.3% | viability at […] (Raji cells; read-out: relative cell viability (Fig 6f), replicates, Raji, Con. […], fraction of 0 μM control): 104%; viability at […] (MOLM14 cells; MOLM-14, read-out: relative cell viability (Fig 6e), replicates, MOLM14, Con. […], fraction of 0 μM control): 106%; viability at 0.00390625 μM [2, 3]: 103%; viability at 0.015625 μM [2, 3]: 80.4%; viability at 0.0625 μM [2, 3]: 104%; viability at 1 μM [2, 3]: 72.7%; viability at 0.000244141 μM [2, 4]: 108%; viability at 0.00390625 μM [2, 4]: 100%; viability at 0.015625 μM [2, 4]: 99.3%; viability at 0.0625 μM [2, 4]: 102%; viability at 1 μM [2, 4]: 93.2%; viability at […] ([2]; normal T-cells from healthy donors, T-cells, Con. […], read-out: relative cell viability (Fig 6b), replicates): 103%

— article PMC7253423, “Quassinoid analogs with enhanced efficacy for treatment of hematologic malignancies target the PI3Kγ isoform” (Communications Biology, 2020)
